± gives the expanded uncertainty stated by the source.
Details: for mass density: 298 K, 101.33 kPa, X-ray diffraction; for Triple point temperature: DSC

mass density (Crystal) [kg/m3]	Compound	mass density (Crystal 3) [kg/m3]	Normal melting temperature (Crystal 1, DTA) [°C]	Triple point temperature (Crystal 2) [K]	Triple point temperature (Crystal 3) [K]
5389 ± 2	[Ag+].[Ag+].[Ag+].[Ag+].[I-].[I-].[I-].[I-].[I-].[Rb+] [rubidium silver iodide (Ag4RbI5)]				
	[Ag+].[Ag+].[Te-2] [silver(I) telluride]	8321 ± 2	962 ± 4	1075 ± 4	418 ± 4
